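Dose response: 5 concentrations. Exposure: 48 h. Format: 96-well plates. Endpoint: linear interpolation; highest concentration if not reached. GI50 = concentration required for 50% inhibition of growth. TGI is the concentration that stops growth completely.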
Legend:
Experiment in all cases: NCI-60 cell line screen, 48 h
U251 CNS = system: U251 CNS
SNB-19 CNS = system: SNB-19 CNS
HT29 colon = system: HT29 colon
786-0 renal = system: 786-0 renal
KM12 colon = system: KM12 colon
A549 NSCLC = system: A549 NSCLC
UACC-62 melanoma = system: UACC-62 melanoma
PC-3 prostate = system: PC-3 prostate
NCI/ADR-RES ovarian = system: NCI/ADR-RES ovarian
MDA-MB-435 = system: MDA-MB-435

| SMILES | TGI (U251 CNS) [µM] | TGI (SNB-19 CNS) [µM] | TGI (HT29 colon) [µM] | TGI (786-0 renal) [µM] | TGI (KM12 colon) [µM] | TGI (A549 NSCLC) [µM] | TGI (UACC-62 melanoma) [µM] | GI50 (PC-3 prostate) [µM] | TGI (PC-3 prostate) [µM] | GI50 (U251 CNS) [µM] | GI50 (SNB-19 CNS) [µM] | GI50 (NCI/ADR-RES ovarian) [µM] | TGI (NCI/ADR-RES ovarian) [µM] | GI50 (HT29 colon) [µM] | GI50 (786-0 renal) [µM] | GI50 (A549 NSCLC) [µM] | GI50 (UACC-62 melanoma) [µM] | TGI (MDA-MB-435) [µM] | GI50 (KM12 colon) [µM] | GI50 (MDA-MB-435) [µM] |
| --- | --- | --- | --- | --- | --- | --- | --- | --- | --- | --- | --- | --- | --- | --- | --- | --- | --- | --- | --- | --- |
| C#CC1(O)CCC2C3CCc4cc(Oc5nc(F)nc(-c6c7ccccc7c7n6CCS7)n5)ccc4C3CC[C@@]21C (some centres not stated) | 40.7 | 70.6 | 73.7 | > 100 | 28.3 | > 100 | 86.2 | – | – | – | – | – | – | – | – | – | – | – | – | – |
| COc1cc(-c2nc3ccccc3s2)ccc1OCCCCOc1cc2c(cc1OC)C(=O)N1CCC[C@H]1C=N2 | 1.63 | 4.11 | 7.14 | 2.17 | – | 7.91 | 2.84 | 0.785 | 2.55 | 0.489 | 1.57 | 2.13 | 6.12 | 0.724 | 0.9 | 2.8 | 1.41 | – | – | – |
| COc1cc(CNc2nc3c(N)cc(C(F)(F)F)cc3nc2-c2ccccc2)cc(OC)c1OC | > 100 | > 100 | > 100 | > 100 | > 100 | > 100 | > 100 | – | – | – | > 100 | – | – | – | – | – | – | – | – | – |
| ClC(Cl)=C(Cl)C1(Cl)CC1COCc1ccccc1 (configuration not stated) | – | > 100 | 86.3 | > 100 | > 100 | > 100 | 69.5 | – | – | – | – | – | – | – | – | – | – | – | – | – |
| N#C/C(=C/C=C/c1ccco1)C(N)=O | > 10 | – | > 10 | > 10 | > 10 | – | – | – | > 10 | – | – | – | > 10 | – | – | – | – | > 10 | – | – |
| O=c1cccccc1[O-].O=c1cccccc1[O-].O=c1cccccc1[O-].[Eu+3] | > 100 | > 100 | > 100 | > 100 | > 100 | > 100 | > 100 | – | – | 26.9 | – | – | – | – | – | – | – | – | – | – |
| CCC[CH2][Sn]([CH2]CCC)([O]C(=O)c1cc(OC)c(OC)cc1OC)[O][Sn]([CH2]CCC)([CH2]CCC)[O]C(=O)c1cc(OC)c(OC)cc1OC | 2.41 | 1.08 | 2.82 | 0.698 | 2.3 | 3.5 | 0.715 | – | – | 1.17 | 0.27 | – | – | 1.22 | 0.24 | 1.67 | 0.251 | – | 0.897 | – |
| CCCn1c(SCCSc2c3ccccc3c(-c3nc(F)nc(F)n3)n2CCC)c2ccccc2c1-c1nc(F)nc(F)n1 | > 100 | > 100 | > 100 | > 100 | > 100 | > 100 | > 100 | – | – | – | – | – | – | – | – | – | – | – | – | – |
| O=C(/C=C(\O)C(=O)O)/C=C(\O)c1ccccc1 | > 100 | > 100 | > 100 | > 100 | > 100 | > 100 | > 100 | – | – | > 1 | > 1 | – | – | > 1 | > 1 | > 1 | > 1 | – | – | – |
| C=CC(=O)N1C/C(=C\c2ccc(Cl)c(Cl)c2)C(=O)/C(=C/c2ccc(Cl)c(Cl)c2)C1 | 0.0724 | – | 0.323 | 0.194 | 0.642 | – | 0.687 | – | – | – | – | – | – | – | – | – | – | – | – | – |
| O=c1cc(-c2ccccn2)[nH]c2cccc(F)c12 | – | > 100 | > 100 | > 100 | > 100 | > 100 | > 100 | – | – | – | – | – | – | – | – | – | – | – | – | – |
| COc1cc2c(cc1OC)C(C(=O)O)C(c1ccccc1)N(C)C2=O (configuration not stated) | > 100 | > 100 | > 100 | > 100 | > 100 | > 100 | > 100 | – | – | – | – | – | – | – | – | – | – | – | – | – |
| O=C(Oc1cccc(Cl)c1)c1ccccc1Nc1ccnc(C(F)(F)F)c1 | – | – | – | 11.4 | 41.4 | 55.1 | 6.71 | 7.39 | 23.6 | – | – | 2.24 | 6.1 | – | 3.53 | 18.1 | 2.02 | 10.7 | 9.53 | 3.04 |
| COc1ccc2c(c1)/C(=C\c1ccncc1)C(=O)N2 | 23.1 | 61.1 | – | 29.3 | 24 | 46.4 | 17.2 | 25 | > 100 | 4.32 | 19.4 | 12.3 | 67.1 | – | 12.5 | 17.3 | 4.46 | 39.3 | 4.83 | 6.57 |
| CCOC(=O)NC(=O)c1cn(CCN2CCN(C(=O)CNC(=O)CNC(=O)Cn3cc(C(=O)NC(=O)OCC)c(=O)[nH]c3=O)CC2)c(=O)[nH]c1=O | > 100 | > 100 | > 100 | > 100 | > 100 | > 100 | > 100 | – | – | – | – | – | – | – | – | – | – | – | – | – |
| C/C(CC(=O)Nc1cccc(Cl)c1C)=N\NC(N)=S | > 100 | – | > 100 | > 100 | > 100 | > 100 | > 100 | – | – | – | – | – | – | – | – | – | – | – | – | – |
| COC1C(OC(=O)c2ccc(C)[nH]2)C(O)C(Oc2ccc3c(O)c(NC(=O)c4c[nH]c(C(=O)Nc5c(O)c6ccc(OC7OC(C)(C)C(OC)C(OC(=O)c8ccc(C)[nH]8)C7O)c(C)c6oc5=O)c4C)c(=O)oc3c2C)OC1(C)C (configuration not stated) | 2.89 | 6.1 | 16.1 | 5.42 | 8.89 | 61.3 | 2.37 | – | – | – | – | – | – | – | – | – | – | – | – | – |
| CC(C)/C=C1\CCC(CN2CCOCC2)C1=O (configuration not stated) | > 56.4 | > 100 | 15.4 | 8.9 | 23.6 | 72.6 | 36.3 | – | – | – | – | – | – | – | – | – | – | – | – | – |
| N#C/C(=C1\SCC(=O)N1c1ccccc1)c1nc2ccccc2[nH]1 | > 100 | > 100 | > 100 | > 100 | – | > 100 | > 100 | – | – | – | – | – | – | – | – | – | – | – | – | – |
| COc1cc2c(cc1OC)-c1ncc3c(OC)ccc(OC)c3c1C2 | 56.4 | > 100 | – | > 100 | 83.7 | > 100 | > 100 | 26.5 | > 100 | 14.6 | 42.3 | 23.6 | > 100 | – | 49.2 | 16.1 | 18 | 99.6 | 16.5 | 23.4 |
| COc1ccccc1N=Nc1c(-c2ccccc2)nn(C(=O)CC(=O)Nc2cccc(C)c2)c1-c1ccccc1 | > 100 | > 100 | 33.3 | > 100 | > 100 | > 100 | > 100 | – | – | – | – | – | – | – | – | – | – | – | – | – |
| C/C(=C\c1ccn(-c2ccccc2N)n1)[C@@H]1C[C@@H]2O[C@]2(C)CCC[C@H](C)[C@H](O)[C@@H](C)C(=O)C(C)(C)[C@@H](O)CC(=O)O1 | > 33.6 | > 50 | > 50 | > 42.6 | > 50 | > 50 | > 50 | 0.0371 | > 50 | 0.0348 | 0.184 | 0.154 | 7.21 | 0.0206 | 0.0938 | 0.0372 | 0.111 | – | 0.0203 | – |
